Key:
[1] = system: Geotrichum candidum mutant 9-2; assay: UNLipase production by mutant in culture medium; type: cell-based
Protocol: It was determined early in our work that having fat or oil in the medium induced other lipases produced by Geotrichum strains. Thus fat or oil was eliminated from the medium. Then improvements for Bacto-Peptone were sought. A series of peptones or other organic nitrogen sources were tested including soy peptone, trypticase® (BBL) peptone, casamino acids, NZ amine® (Sheffield Products) and casein.
Next, the salt constituents were examined in the standard medium. […] The inclusion of these two salts in the medium gave a doubling of measured hydrolyric activity when assayed using the standard assay. […] Fifty mls of this medium are placed in 500 ml baffled flasks (Bellco) then shaken at 250 rpms at 25°-30° C.
The next goal was to find a mutant with enhanced productivity. Thus the mutagenesis of mutant 9-2 was undertaken as described above but the selection protocol was altered. In this case, after the 8° C. recovery period the mutant suspensions were placed in 50 ml sterile test tubes and frozen at -55° C. The period of freezing was then interrupted by thawing periods (about 4 hours) and followed by freezing at -55° C. Mutants were screened for lipase activity and selectivity. One mutant, 9-2-3-9, survived a cycle of 3 weeks of freezing which had been interrupted by 3 thaw cycles. The mutant 9-2-3-9 was distinctly different from its parent (9-2) in its colony morphology when grown on nutrient agar. The colony type was much more aerial than 9-2.
The mutant 9-2 was grown in the medium described above. Fifty mls were added to 500 ml baffled flasks (Bellco) and placed on a shaker maintained at 30° C. and shaken at 250 rpms. Production reaches a peak at about 30 hours, then declines slightly and remains low. The enzyme was harvested at 30 hours for a series of hydrolyric tests. The collection of the enzyme involves centrifugation of the broth at 5000 rpms in the Beckman GSA rotor for 10 minutes. The cell free broth was then decanted from the cell pellet. In some cases, high activity suspension were produced by a 70% ammonium sulfate precipitation of the broth.

UNLipase [2] = assay: Esterification of fatty acid mixture from pressure-split beef tallow (PFA); type: biochemical, Geotrichum candidum; conditions: HPLC or GC; pentadecanoic acid internal standard
Protocol: The esterification of fatty acid mixtures was evaluated using typical fatty acid mixtures derived from pressure-split beef tallow, henceforth referred to as PFA. Samples of PFA were spiked with pentadecanoic acid as an internal standard. The resulting products were analyses by either HPLC (reverse phase C-18 column) or GC (FFAP capillary column).

UNLipase [3] = assay: Fatty acid selectivity of lipase esterification; type: biochemical, Geotrichum candidum
Protocol: These preparations contained 50-200 mg of fatty acid, 0.5 ml concentrated broth, 0.5 ml water (buffer) and 100-300 ul of alcohol. Reactions were run at either 27, 30 or 37 degrees Celsius for 16 to 24 hours. The reaction was stopped by adding 2.0 ml ether.
Fatty acid and ester were extracted into ether and evaluated by thin layer chromatography. The esterification of oleic acid with various alcohols is present in Table 1.
The fatty acid selectivity of the lipase in esterification reactions was also evaluated in the manner described above, with results analyzed by thin layer chromatography, GC, HPLC and IR.

UNLipase [4] = assay: Effect of metal ions on UNLipase; type: biochemical, Geotrichum candidum; conditions: 25 mM concentration
UNLipase [5] = assay: Hydrolysis of simple (methyl) esters with UNLipase; type: biochemical, Geotrichum candidum; conditions: about 50 mM in isooctane, 37 degrees C, 4 hours
Excerpt: Simple esters were subjected to UNLipase to determine the scope and extent of UNLipase selectivity. The esters evaluated were methyl esters of propionic, caprylic, nonanoic, caproic, palmitic and oleic acids. […] Approximately 2% of the methyl palmitate reacted, whereas 67% of the methyl oleate was hydrolyzed.

G. candidum lipase = conditions: cited from earlier work
UNLipase [6] = assay: Hydrolysis of pure triglycerides with UNLipase; type: biochemical, Geotrichum candidum; conditions: 1 hour at 37 degrees C; for ratio of hydrolysis for triolein:tripalmitolein:trilinolein: pure triglyceride in isooctane, relative to triolein 100
Protocol: The Enzyme was harvested using centrifugation at 5000 rpms, for example, in a Beckman GSA rotor for 10 minutes. This cell-free preparation was used to determine hydrolysis, esterification and transesterification properties.
Substrates were prepared in isooctane (2,2,4-trimethylpentane) at about 0.8 grams per 20 ml solvent. Assay procedures for determining lipase activity were those described by Kwon, D. Y. and Rhee, J. S., J. Amer. Oil Chem Soc. 63:89-92(1986). One modification was to perform some assays for one hour under nonagitated conditions to avoid difficulties in reproducing agitation rates.
Hydrolysis was greatest for triolein, with the ratio of hydrolysis for triolein: tripalmitolein:trilinolein of 100:65:82. […] The ratio of hydrolysis of triolein to tripalmitin was approximately 33:1.

[7] = added to culture medium of mutant 9-2

OC[C@H]1O[C@H](O[C@H]2[C@H](O)[C@@H](O)C(O)O[C@@H]2CO)[C@H](O)[C@@H](O)[C@@H]1O (mixture of isomers) [maltose]
effect on UNLipase production [1, 7]: no effect

O=P([O-])(O)O.[K+] [KH2 PO4]
effect on UNLipase production [1, 7]: benefit

CCCCC/C=C\C/C=C\CCCCCCCC(=O)O [Linoleic]
ester formation in PFA mixture (UNLipase [2]): detected

O=S(=O)([O-])[O-].[Mg+2] [MgSO4]
effect on UNLipase production ([1]; MgSO4 concentration increased to 0.5%): no further enhancement
effect on UNLipase production [1, 7]: benefit

CCCCCCCC/C=C\CCCCCCCC(=O)O [Oleic, oleic acid]
ester formation in PFA mixture (UNLipase [2]): detected

CCCCCC/C=C\CCCCCCCC(=O)O [Palmitoleic]
ester formation in PFA mixture (UNLipase [2]): detected

CCCCCCCCCCCCCCCCCC(=O)O [Stearic]
ester formation in PFA mixture (UNLipase [2]): not esterified

C=CCCCCCCCCC(=O)O [Undecenoic acid, 10-undecenoic acid]
effect on esterification of oleic acid (UNLipase [3]): inhibitor

[Ca+2] [calcium ions]
effect on UNLipase production [1, 7]: did not enhance
effect on UNLipase (UNLipase [4]): inhibited

O=C(CO)[C@@H](O)[C@H](O)[C@H](O)CO [fructose]
effect on UNLipase production [1, 7]: inhibited

O=C[C@H](O)[C@@H](O)[C@H](O)[C@H](O)CO [glucose]
effect on UNLipase production [1, 7]: inhibited

[Mg+2] [magnesium ions]
effect on UNLipase (UNLipase [4]): activated

OC[C@@H](O)[C@@H](O)[C@H](O)[C@H](O)CO [mannitol]
effect on UNLipase production [1, 7]: no effect

CCCCCCCC(=O)OC [methyl ester of caprylic acid]
hydrolysis by UNLipase (UNLipase [5]): not hydrolyzed

CCCCCCCCC(=O)OC [methyl ester of nonanoic acid]
hydrolysis by UNLipase (UNLipase [5]): not hydrolyzed

CCC(=O)OC [methyl ester of propionic acid]
hydrolysis by UNLipase (UNLipase [5]): not hydrolyzed

CCCCCCCC/C=C\CCCCCCCC(=O)OC [methyl oleate]
hydrolytic rate relative to palmitic methyl ester (G. candidum lipase): 10 times
methyl ester hydrolyzed (UNLipase [5]): 67%

CCCCCCCCCCCCCCCC(=O)OC [methyl palmitate]
methyl ester hydrolyzed (UNLipase [5]): Approximately 2%

CCCCCCCCCCCCCC(=O)O [myristic]
ester formation in PFA mixture (UNLipase [2]): not esterified

CCCCCCCCCCCCCCCC(=O)O [palmitic]
ester formation in PFA mixture (UNLipase [2]): not esterified

CCCCCCCCCCCCCCC(=O)O [pentadecanoic acid]
ester formation in PFA mixture (UNLipase [2]): not esterified

OC[C@H]1O[C@@](CO)(O[C@H]2O[C@H](CO)[C@@H](O)[C@H](O)[C@H]2O)[C@@H](O)[C@@H]1O [sucrose]
effect on UNLipase production [1, 7]: inhibited

CCCCC/C=C\C/C=C\CCCCCCCC(=O)OCC(COC(=O)CCCCCCC/C=C\C/C=C\CCCCC)OC(=O)CCCCCCC/C=C\C/C=C\CCCCC [trilinolein]
ratio of hydrolysis for triolein:tripalmitolein:trilinolein (UNLipase [6]): 82

CCCCCCCC/C=C\CCCCCCCC(=O)OCC(COC(=O)CCCCCCC/C=C\CCCCCCCC)OC(=O)CCCCCCC/C=C\CCCCCCCC [triolein]
ratio of hydrolysis for triolein:tripalmitolein:trilinolein (UNLipase [6]): 100

CCCCCCCCCCCCCCCC(=O)OCC(COC(=O)CCCCCCCCCCCCCCC)OC(=O)CCCCCCCCCCCCCCC [tripalmitin]
reactivity with UNLipase (UNLipase [6]; saturated fatty acid triglycerides): showed any reactivity

CCCCCC/C=C\CCCCCCCC(=O)OCC(COC(=O)CCCCCCC/C=C\CCCCCC)OC(=O)CCCCCCC/C=C\CCCCCC [tripalmitolein]
ratio of hydrolysis for triolein:tripalmitolein:trilinolein (UNLipase [6]): 65
